{"source": "patent US4185119A", "about": "“Antiallergic methods” (priority 1977, dated 1980)", "type_in_all_cases": "in vivo", "key": {"[1]": {"system": "P.C.A. reaction in I.C.R. strain mice", "test": "Inhibition test of P.C.A. reaction in I.C.R. strain mice, rat hyperimmune antiserum against egg albumin", "details": "I.C.R. mouse (Table 3-I)", "protocol": "(c) Inhibition test of P.C.A. reaction in I.C.R. (Institute of Cancer Research) strain mice\n(i) Test compound: N-methyllaurotetanine hydrochloride\nFifteen male I.C.R. strain mice aged 7 weeks, weighing about 35 g were divided equally into 3 groups. Each of the groups was composed of 5 mice, (in case of intraperioneal administration of the test compound to the mouse, each of the groups was composed of […]).\nTen-hold diluted solution (0.05 ml.) of the rat hyperimmune antiserum against egg albumin was given intracutaneously to the depilated back of each mouse of Group I and Group II, respectively. On the other hand, a rat normal serum (0.05 ml.) was given intracutaneously to the depilated back of each mouse of Group III. Three hours after the administration, a normal saline (0.1 ml.) containing egg albumin (1.5 mg.) and Evans blue (0.5 mg.) was given intravenously to each mouse of Groups I-III in order to bring about P.C.A., respectively.\nBeforehand, 3 hours and 1 hours before the admnistration to bring about P.C.A., a normal saline (0.3 ml.) containing the prescribed amount of N-methyllaurotetanine hydrochloride and carboxymethylcellulose (0.5%) was given orally or intraperitoneally to each mouse of Group I, and a normal saline (0.3 ml.) containing only carboxymethylcellulose (0.5%) was given orally or intraperitoneally to each mouse of Group II.\nThe procedure followed by the above, was carried out in substantially the same manner as described in the above item (2)-(a). […]"}, "[2]": {"system": "P.C.A. reaction in Donryu strain rats", "test": "Inhibition of P.C.A. reaction in Donryu strain rats, rat reaginic antiserum against egg albumin", "details": "Donryu rat (Table 2-I)", "protocol": "(a) Rat reaginic antiserum against egg albumin\nA solution of egg albumin (2 mg) in B. pertussis-diphtheria-tetanus mixed vaccine (1 ml.) (made by Takeda Chemical Industries Ltd.) was mixed with an equal volume of incomplete adjuvant (made by Difco Laboratories) to give an emulsion. The emulsion was given subcutaneously in a single dose of 1 ml. divided equally (0.25 ml.) to the four foot pads of male S.D. (Sprague-Dawley) strain rats aged 8 weeks, each weighing about 300 g.\nFive days after the administration, a solution of egg albumin (0.5 mg.) in B. pertussis-diphtheria-tetanus mixed vaccine (0.5 ml.) was further given intramuscularly in a single dose of 0.5 ml. divided equally (0.25 ml.) to 2 places of thigh of the same rats.\nThree days after the second administration, blood samples were collected from femoral artery of the rats and allowed to stand at ambient temperature for 5 hours. The separated supernatant was centrifuged at 4° C. (10,000 r.p.m.× 1 hour). The antisera thus obtained were stored at -80° C. prior to use.\n(b) Inhibitory effect on P.C.A. reaction in Donryu strain rat\nThe following tests were carried out in substantially the same manner as described in the above item (2)-(a).\n(i) Test compound: N:methyllaurotetanine hydrochloride\nTest animal: Male Donryu strain rats aged 8 weeks, weighing about 130 g.\nChallenge: A normal saline (0.3 ml.) containing egg albumin (4.5 mg.) and Evans blue (1.5 mg.).\n(ii) Test commpound: glaucine or boldine\nTest animal: Male Donryu strain rats aged 8 weeks, weighing 140-150 g.\nChallenge: the same as the above item (b)-(i)."}, "[3]": {"system": "anaphylactic asthma in guinea-pigs", "test": "Inhibition test of anaphylactic asthma in guinea-pigs", "details": "intraperitoneal, survived more than 7 minutes", "protocol": "(c) Guinea-pig antiserum against egg albumin\nA solution of egg albumin (10 mg.) in normal saline (1 ml.) was mixed with incomplete adjuvant (1 ml.) to give an emulsion. The emulsion was given subcutaneously in a single dose of 0.4 ml. divided equally (0.1 ml.) to the four pads of male Hartley strain guinea-pigs, each weighing 350-380 g.\nTwo weeks after the administration, a solution of egg albumin (1 mg.) in normal saline (1 ml.) was further given subcutaneously in a single dose of 0.4 ml divided equally (0.1 ml.) to the four pads of the same guinea-pigs.\nSubsequently, one week and two weeks after the second adminstration, the guinea-pigs were treated in substantially the same manner as the above second administration.\nOne week after the final administration, blood samples were collected from the guinea-pigs and treated in substantially the same manner as described in the above item (a). The antisera thus obtained were stored at -80° C. prior to use.\n(3) Inhibition test of anaphylactic asthma in guinea-pigs\nTo ten male Hartley strain guinea-pigs, weighing 300 g was given intravenously the guinea-pig antiserum against egg albumin (0.1 ml.), respectively. Twenty four hours after the administration, each of the guinea-pigs was put individually into each of boxes (innercapacity: 5.3 liters). A normal saline containing egg albumine (1%) was continuously sprayed with a nebulizer into the boxes.\nBeforehand, one hour and 30 seconds before putting the guinea-pigs into each of the boxes, a normal saline (1 ml.) containing the prescribed amount of N-methylaurotetanine hydrochloride and carboxymethylcellulose (0.5%) was given intraperitoneally to five guinea-pigs and a normal saline (1 ml.) containing only carboxymethylcellulose (0.5%) was given intraperitoneally to each of the remaining 5 guinea-pigs. Time till the test animal was suffocated to death, was measured and when animals survived more than 7 minutes, inhibition of anaphylactic asthma were judged as effective. Survival (%) was calculated by the following formula: [formula]"}}, "note": "Structures can show the parent of a compound that is named as a salt.", "data": [{"smiles": "COc1cc2c(cc1O)CC1c3c(cc(OC)c(OC)c3-2)CCN1C", "note": "(centres unmarked) [N-Methyllaurotetanine hydrochloride]", "values": [{"measurement": "Inhibitory effect on P.C.A. reaction", "setting": "[1]; intraperitoneal, 3 mg/kg", "result": 50, "unit": "%"}, {"measurement": "Inhibitory effect on P.C.A. reaction", "setting": "[1]; intraperitoneal, 10 mg/kg", "result": 80, "unit": "%"}, {"measurement": "Inhibitory effect on P.C.A. reaction", "setting": "[1]; intraperitoneal, 30 mg/kg", "result": 95, "unit": "%"}, {"measurement": "Inhibitory effect on P.C.A. reaction", "setting": "[1]; oral, 16 mg/kg", "result": 20, "unit": "%"}, {"measurement": "Inhibitory effect on P.C.A. reaction", "setting": "[1]; oral, 48 mg/kg", "result": 50, "unit": "%"}, {"measurement": "Inhibitory effect on P.C.A. reaction", "setting": "[1]; oral, 145 mg/kg", "result": 70, "unit": "%"}, {"measurement": "Inhibitory effect on P.C.A. reaction", "setting": "[2]; intraperitoneal, 4 mg/kg", "result": 30, "unit": "%"}, {"measurement": "Inhibitory effect on P.C.A. reaction", "setting": "[2]; intraperitoneal, 13 mg/kg", "result": 60, "unit": "%"}, {"measurement": "Inhibitory effect on P.C.A. reaction", "setting": "[2]; intraperitoneal, 40 mg/kg", "result": 70, "unit": "%"}, {"measurement": "Inhibitory effect on P.C.A. reaction", "setting": "[2]; intravenous, 6.7 mg/kg", "result": 70, "unit": "%"}, {"measurement": "Inhibitory effect on P.C.A. reaction", "setting": "[2]; intravenous, 20 mg/kg", "result": 100, "unit": "%"}, {"measurement": "Inhibitory effect on P.C.A. reaction", "setting": "[2]; oral, 20 mg/kg", "result": 40, "unit": "%"}, {"measurement": "Inhibitory effect on P.C.A. reaction", "setting": "[2]; oral, 66 mg/kg", "result": 70, "unit": "%"}, {"measurement": "Inhibitory effect on P.C.A. reaction", "setting": "[2]; oral, 200 mg/kg", "result": 90, "unit": "%"}, {"measurement": "Survival", "setting": "[3]; 30 mg/kg", "result": 0, "unit": "%"}, {"measurement": "Survival", "setting": "[3]; 60 mg/kg", "result": 40, "unit": "%"}, {"measurement": "Survival", "setting": "[3]; 120 mg/kg", "result": 80, "unit": "%"}]}]}
